Earlier results, collected in patent publication US12091408B2, “Store overload-induced calcium release inhibitors and methods for producing and using the same” (UTI Limited Partnership, priority 2013, dated 2024).

What was measured:
β-adrenergic receptor = conditions: previously shown by the inventors; cited from earlier work
[1] = test system: ventricular arrhythmias and sudden death; conditions: mice, reported; via enhanced FKBP12.6 binding to RyR2; cited from earlier work

Row | Structure (SMILES) | β-blockade (order of magnitude) (β-adrenergic receptor) | suppression of ventricular arrhythmias and sudden death [1]
1 | COc1ccccc1OCCNCC(O)COc1cccc2[nH]c3ccccc3c12 (stereo not drawn) [Compound 1, carvedilol] | nanomolar | –
2 | COc1ccc2c(c1)CN(C)CCS2 [Compound 99, S107] | – | suppress ventricular arrhythmias and sudden death in mice
3 | COc1ccc2c(c1)CN(C(=O)CCN1CCC(Cc3ccccc3)CC1)CCS2.Cl [Compound 102, JTV519] | – | suppress ventricular arrhythmias and sudden death in mice
